Values of other authors as cited in PMC12846068, “Insights into Transport Function of the Murine Organic Anion-Transporting Polypeptide OATP1B2 by Comparison with Its Rat and Human Orthologues” (Toxics, 2025).

Target: T1, rOATP1B2 (Rattus norvegicus, UniProt Q9QZX8)
T1 construct: The full-length mOATP1B2 and rOATP1B2 consist of 689 and 678 amino acids
T1 sequence (Q9QZX8 1-687): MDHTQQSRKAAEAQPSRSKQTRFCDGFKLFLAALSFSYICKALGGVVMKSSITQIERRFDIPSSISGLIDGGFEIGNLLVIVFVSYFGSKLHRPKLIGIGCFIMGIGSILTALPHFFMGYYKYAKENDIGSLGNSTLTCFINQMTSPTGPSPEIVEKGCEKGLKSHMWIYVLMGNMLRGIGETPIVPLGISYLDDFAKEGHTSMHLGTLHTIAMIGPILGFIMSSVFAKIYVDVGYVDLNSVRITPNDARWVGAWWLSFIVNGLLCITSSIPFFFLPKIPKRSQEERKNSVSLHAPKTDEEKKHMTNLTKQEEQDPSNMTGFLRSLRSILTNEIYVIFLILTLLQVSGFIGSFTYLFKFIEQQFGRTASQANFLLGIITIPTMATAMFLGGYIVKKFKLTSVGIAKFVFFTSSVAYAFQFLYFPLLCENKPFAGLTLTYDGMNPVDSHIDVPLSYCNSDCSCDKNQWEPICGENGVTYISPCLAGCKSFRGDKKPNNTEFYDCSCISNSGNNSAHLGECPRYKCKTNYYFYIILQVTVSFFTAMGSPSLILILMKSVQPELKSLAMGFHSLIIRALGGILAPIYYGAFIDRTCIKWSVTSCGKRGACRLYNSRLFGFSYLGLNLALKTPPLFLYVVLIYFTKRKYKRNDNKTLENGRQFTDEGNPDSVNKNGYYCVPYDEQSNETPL
Parameters: method as in Ishida et al. (2018) [9]
Conditions: ref Ishida et al. (2018) [9]; read-out: Km, rOATP1B2-mediated uptake; cited from earlier work

In the case of `CC(C)c1nc(N(C)S(C)(=O)=O)nc(-c2ccc(F)cc2)c1/C=C/[C@@H](O)C[C@@H](O)CC(=O)O` [Rosuvastatin, rosuvastatin], the Km is listed as 28.1 µM.
